Measurements reported in patent US20080281105A1, “Novel Quinolinium Salts and Derivatives” (IMMUSOL INCORPORATED, priority 2005, published 2008).

What was measured:
A2780 = assay: Cell growth in soft agar culture (alamarBlue); details: Homo sapiens, A2780, 168 h, read-out: IC50 (uM) Soft agar
DU145 = assay: Cell growth in soft agar culture (alamarBlue); details: Homo sapiens, DU-145, 168 h, read-out: IC50 (uM) Soft agar
Panc-1 = assay: Liquid growth culture with and without added glucose (alamarBlue); format: cell-based; details: Homo sapiens
Excerpt: (§1) The method is as follows:

Pc3M/N [1] = assay: as above; format: cell-based; details: Homo sapiens, PC-3M
Excerpt: as §1

HCT-116 = assay: as above; format: cell-based; details: Homo sapiens
Excerpt: as §1

HCT116 = assay: Cell growth in soft agar culture (alamarBlue); details: Homo sapiens, HCT-116, 168 h, read-out: IC50 (uM) Soft agar
UACC62 = assay: Cell growth in soft agar culture (alamarBlue); details: Homo sapiens, UACC-62, 168 h, read-out: IC50 (uM) Soft agar
W138 = assay: Cell growth in liquid culture (alamarBlue); details: W138, 72 h, read-out: IC50 (uM) Liquid culture
A549 [2] = assay: Cell growth in liquid culture (alamarBlue); details: Homo sapiens, A549, 72 h, read-out: IC50 (uM) Liquid culture
DLD1 [3] = assay: Cell growth in soft agar culture (alamarBlue); details: Homo sapiens, DLD-1, 168 h, read-out: IC50 (uM) Soft agar
SK-OV-3 [4] = assay: Cell growth in soft agar culture (alamarBlue); details: Homo sapiens, SK-OV-3, 168 h, read-out: IC50 (uM) Soft agar
NCI-H460 = assay: Cell growth in soft agar culture (alamarBlue); details: Homo sapiens, NCI-H460, 168 h, read-out: IC50 (uM) Soft agar
IMR90 = assay: Cell growth in liquid culture (alamarBlue); details: Homo sapiens, IMR-90, 72 h, read-out: IC50 (uM) Liquid culture
SKBR3 = assay: Cell growth in soft agar culture (alamarBlue); details: Homo sapiens, SK-BR-3, 168 h, read-out: IC50 (uM) Soft agar
MDA_MB-435 = assay: Cell growth in liquid culture (alamarBlue); details: Homo sapiens, MDA-MB-435, 72 h, read-out: IC50 (uM) Liquid culture
HT29 = assay: Cell growth in liquid culture (alamarBlue); details: Homo sapiens, HT-29, 72 h, read-out: IC50 (uM) Liquid culture
HCT116-P53(−) = assay: Cell growth in soft agar culture (alamarBlue); details: 168 h, read-out: IC50 (uM) Soft agar
T47D = assay: Cell growth in soft agar culture (alamarBlue); details: Homo sapiens, 168 h, read-out: IC50 (uM) Soft agar
MDA-231 = assay: Cell growth in liquid culture (alamarBlue); details: Homo sapiens, MDA-MB-231, 72 h, read-out: IC50 (uM) Liquid culture
SK-OV-3 [5] = assay: Cell growth in liquid culture (alamarBlue); details: Homo sapiens, SK-OV-3, 72 h, read-out: IC50 (uM) Liquid culture
OVCAR-4 = assay: Cell growth in liquid culture (alamarBlue); details: Homo sapiens, OVCAR-4, 72 h, read-out: IC50 (uM) Liquid culture
HUVEC = assay: Cell growth in liquid culture (alamarBlue); details: Homo sapiens, 72 h, read-out: IC50 (uM) Liquid culture
SW480 = assay: Cell growth in liquid culture (alamarBlue); details: Homo sapiens, SW480, 72 h, read-out: IC50 (uM) Liquid culture
Pc3M/N [6] = assay: Cell growth in soft agar culture (alamarBlue); details: Homo sapiens, PC-3M, 168 h, read-out: IC50 (uM) Soft agar
ASPC-1 = assay: Cell growth in liquid culture (alamarBlue); details: Homo sapiens, ASPC1, 72 h, read-out: IC50 (uM) Liquid culture
DLD1 [7] = assay: Cell growth in liquid culture (alamarBlue); details: Homo sapiens, DLD-1, 72 h, read-out: IC50 (uM) Liquid culture
A549 [8] = assay: Cell growth in soft agar culture (alamarBlue); details: Homo sapiens, A549, 168 h, read-out: IC50 (uM) Soft agar
[9] = tested on: HCT116 colon cancer cells; details: HCT116 xenograft, I.p.
Excerpt: Female athymic nude (nu/nu) mice were inoculated with HCT116 colon cancer cells, and the tumors were allowed to grow to a volume of about 150 mm^3.

HS578 = assay: Cell growth in soft agar culture (alamarBlue); details: Hs578, 168 h, read-out: IC50 (uM) Soft agar

Q: How did the IC50 (A2780) turn out when `Cc1cc(/C=C/c2ccc3cc(N(C)C)ccc3[n+]2C)c(C)n1-c1ccccc1` [Example 1, Pyrvinium Phosphate] was run?
A: The IC50 was 0.03 to 0.1 µM.

Q: What about the IC50 (DU145) of the same compound?
A: Its IC50 is 0.3 to 1 µM.

Q: What about the IC80 (Panc-1; PANC-1, Panc-1, (+) Glu) of the same compound?
A: The IC80 was over 1000 nM.

Q: What about the IC80 (Panc-1; PANC-1, Panc-1, (−) Glu) of the same compound?
A: The IC80 was 100 nM.

Q: And the IC80 (Pc3M/N [1]; (+) Glu)?
A: The IC80 was 1000 nM.

Q: And the IC80 (Pc3M/N [1]; (−) Glu)?
A: The IC80 was 100 nM.

Q: And the IC80 (HCT-116; HCT-116, HCT-116, (+) Glu)?
A: Its IC80 is 1000 nM.

Q: And the IC80 (HCT-116; HCT-116, HCT-116, (−) Glu)?
A: Its IC80 is 100 nM.

Q: And the IC50 (HCT116)?
A: The IC50 was 0.1 to 0.3 µM.

Q: What about the IC50 (UACC62) of the same compound?
A: Its IC50 is 0.03 to 0.1 µM.

Q: And the IC50 (W138)?
A: Its IC50 is 0.1 to 0.3 µM.

Q: And the IC50 (A549 [2])?
A: The IC50 was 0.1 to 0.3 µM.

Q: And the IC50 (DLD1 [3])?
A: Its IC50 is about 1 µM.

Q: What about the IC50 (SK-OV-3 [4]) of the same compound?
A: Its IC50 is 0.03 to 0.1 µM.

Q: And the IC50 (NCI-H460)?
A: The IC50 was 0.03 to 0.1 µM.

Q: What about the IC50 (IMR90) of the same compound?
A: Its IC50 is 0.1 to 0.3 µM.

Q: What about the IC50 (SKBR3) of the same compound?
A: The IC50 was about 1 µM.

Q: And the IC50 (MDA_MB-435)?
A: Its IC50 is 0.3 to 1 µM.

Q: And the IC50 (HT29)?
A: Its IC50 is over 1 µM.

Q: And the IC50 (HCT116-P53(−))?
A: Its IC50 is 0.1 to 0.3 µM.

Q: And the IC50 (T47D)?
A: Its IC50 is under 0.03 µM.

Q: And the IC50 (MDA-231)?
A: The IC50 was 0.1 to 0.3 µM.

Q: What about the IC50 (SK-OV-3 [5]) of the same compound?
A: The IC50 was 0.1 to 0.3 µM.

Q: What about the IC50 (OVCAR-4) of the same compound?
A: Its IC50 is 0.1 to 0.3 µM.

Q: And the IC50 (HUVEC)?
A: Its IC50 is 0.03 to 0.1 µM.

Q: What about the IC50 (SW480) of the same compound?
A: Its IC50 is 0.3 to 1 µM.

Q: What about the IC50 (Pc3M/N [6]) of the same compound?
A: The IC50 was about 0.3 µM.

Q: What about the IC50 (ASPC-1) of the same compound?
A: The IC50 was 0.3 to 1 µM.

Q: What about the IC50 (DLD1 [7]) of the same compound?
A: Its IC50 is 0.3 to 1 µM.

Q: And the IC50 (A549 [8])?
A: The IC50 was 0.033 to 0.1 µM.

Q: And the “Result: Tumor reduction” value [9]?
A: Its value is “Tumor reduction (25%)”.

Q: And the IC50 (HS578)?
A: The IC50 was 0.03 to 0.1 µM.
